Patent publication US20040023314A1, “Mutant fibronectin and tumor metastasis” (Baylor College of Medicine, priority 2002, published 2004)

Tested on: 1143 mel tumor cells
Test: Migration assay (matrigel)
Assay type: cell-based, human
Settings: 1143 mel cells stably expressing the construct, 48 h
Procedure: 2.5×10^4 1143 mel tumor cells and transfected tumor cells were seeded into the upper chamber with 0.75 ml of RPMI-1640 serum-free medium in BIOCOAT […] Cells (Becton Dickinson, San Jose, Calif.). The bottom chamber contained 0.75 ml of RPMI-1640 serum-free medium (control medium) or 0.75 ml of RPMI-1640/10% FCS (complete medium). After incubation at 37° C. and 5% CO2 for 48 h, Cells in the lower chambers were fixed in 4% formaldehyde in PBS at room temperature for 20 min, stained with crystal violet, and examined and counted from four different fields under a compound microscope.
The migratory ability of these cell lines expressing wild type or mutant FN was further evaluated. […] To rule out clonal variation, similar experiments were repeated with four sets of independent tumor cell clones expressing either wild-type, mutant FN or empty vector. […] The P-value for significant difference is 0.0007 among the two comparison groups of cell clones expressing mutant FN and other cell clones expressing either wild-type FN, empty vector. There were no statistically significant differences among groups of parental 1143 mel and its derivative clones expressing wild-type or empty vector.

Substance	migration from chamber with control medium to chamber with complete medium
mutant FN: mutated fibronectin with Glu to Lys substitution at position 2053	enhanced migration ability
wild-type FN: wild-type fibronectin	little or no migration
